Measured values from US20200354426A1 (MEDIMMUNE LIMITED, priority 2016, published 2020).
Numbered stars: 1 amine (or outer) side, 2 acyl side, 3 side chain; on linkers, the order of the positions; unused ones are H or OH. Side chains are listed from the residue outwards. Peptide text beside a SMILES is read from it. * marks the point of attachment. γGlu = O=C(O)[C@H](CCC(=O)[*:2])N[*:1]; Palmitoyl = CCCCCCCCCCCCCCCC(=O)*; Ahx = NCCCCCC(=O)O; βAla = NCCC(=O)O

Tests used:
Test in all cases: cAMP activity assay in assay medium (assay 1)
Type in all cases: cell-based
Human GIPr = molecular target: T1, Human GIPr (Homo sapiens, UniProt P48546); details: assay medium; Table 4; read-out: hGIPR EC50
T1 construct: expressed in transfected cells
T1 sequence (P48546 22-466): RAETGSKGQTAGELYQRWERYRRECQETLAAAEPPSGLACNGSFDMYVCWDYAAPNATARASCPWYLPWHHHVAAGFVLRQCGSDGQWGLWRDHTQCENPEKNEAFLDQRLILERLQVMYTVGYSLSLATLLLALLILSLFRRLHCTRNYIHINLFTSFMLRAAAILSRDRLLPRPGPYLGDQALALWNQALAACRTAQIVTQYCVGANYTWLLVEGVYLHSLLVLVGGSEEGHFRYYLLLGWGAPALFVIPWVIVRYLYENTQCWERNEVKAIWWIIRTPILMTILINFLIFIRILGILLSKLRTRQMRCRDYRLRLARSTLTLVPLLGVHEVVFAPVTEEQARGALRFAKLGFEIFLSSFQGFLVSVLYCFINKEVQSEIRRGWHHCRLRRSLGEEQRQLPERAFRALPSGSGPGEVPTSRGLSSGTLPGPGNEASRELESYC
Excerpt: (§1) Biological Activity of Peptides in Cell-Based cAMP Activity Assay (Assay 1):
(§2) All sample dilutions were made in duplicate.

Human GlucR = molecular target: T2, Human GlucR (Homo sapiens, UniProt P47871); details: assay medium; Table 4; read-out: hGlucR EC50
T2 construct: expressed in transfected cells
Excerpt: as §1, §2

Human GLP1R = Human GLP1R (Homo sapiens, UniProt P43220); design: expressed in transfected cells; details: assay medium; Table 4; read-out: hGLP1R EC50
Excerpt: as §1, §2

T2 sequence (P47871 26-477): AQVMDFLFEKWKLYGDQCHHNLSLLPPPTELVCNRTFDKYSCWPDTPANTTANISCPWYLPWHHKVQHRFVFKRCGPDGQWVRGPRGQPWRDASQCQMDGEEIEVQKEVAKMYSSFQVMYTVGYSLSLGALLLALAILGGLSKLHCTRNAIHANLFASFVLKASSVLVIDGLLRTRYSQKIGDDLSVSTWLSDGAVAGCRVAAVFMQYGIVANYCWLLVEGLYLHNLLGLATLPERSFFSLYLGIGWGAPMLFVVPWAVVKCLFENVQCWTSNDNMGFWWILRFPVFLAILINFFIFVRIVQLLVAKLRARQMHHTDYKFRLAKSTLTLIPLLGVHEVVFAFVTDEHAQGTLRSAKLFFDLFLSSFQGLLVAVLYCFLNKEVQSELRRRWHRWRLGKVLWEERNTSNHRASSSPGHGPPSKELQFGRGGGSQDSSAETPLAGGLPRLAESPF
Human GLP1R, sequence (P43220 24-463): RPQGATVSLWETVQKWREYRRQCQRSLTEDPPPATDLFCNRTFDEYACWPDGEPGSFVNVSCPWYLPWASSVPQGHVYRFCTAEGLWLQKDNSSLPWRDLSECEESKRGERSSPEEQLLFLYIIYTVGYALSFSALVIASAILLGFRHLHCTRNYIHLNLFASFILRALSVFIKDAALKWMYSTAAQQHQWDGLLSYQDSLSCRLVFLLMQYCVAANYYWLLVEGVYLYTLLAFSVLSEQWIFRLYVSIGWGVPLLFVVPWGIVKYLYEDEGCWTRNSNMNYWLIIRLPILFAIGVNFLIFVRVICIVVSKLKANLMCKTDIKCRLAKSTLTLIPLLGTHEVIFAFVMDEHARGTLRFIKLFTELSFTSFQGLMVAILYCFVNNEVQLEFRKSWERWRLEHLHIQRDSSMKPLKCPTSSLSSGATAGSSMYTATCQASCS

| EC50 (Human GIPr) [nM] | EC50 (Human GlucR) [nM] | EC50 (Human GLP1R) [nM] | Structure (SMILES) |
| --- | --- | --- | --- |
| 94 | 0.0089 | 0.021 | CCCCCCCCCCCCCCCC(=O)NCCCCCC(=O)NCCCC[C@H](NC(=O)[C@H](CO)NC(=O)[C@H](CC(=O)O)NC(=O)[C@H](CC(C)C)NC(=O)[C@H](Cc1ccc(O)cc1)NC(=O)[C@H](CCC(=O)O)NC(=O)[C@H](CO)NC(=O)[C@H](Cc1ccc(O)cc1)NC(=O)[C@H](CC(=O)O)NC(=O)[C@H](CO)NC(=O)[C@@H](NC(=O)[C@H](Cc1ccccc1)NC(=O)[C@@H](NC(=O)CNC(=O)[C@H](CCC(N)=O)NC(=O)[C@H](CO)NC(=O)[C@@H](N)Cc1c[nH]cn1)[C@@H](C)O)[C@@H](C)O)C(=O)N[C@@H](CCCNC(=N)N)C(=O)N[C@@H](C)C(=O)N[C@@H](C)C(=O)N[C@@H](CC(=O)O)C(=O)N[C@@H](Cc1ccccc1)C(=O)N[C@H](C(=O)N[C@@H](C)C(=O)N[C@@H](Cc1c[nH]c2ccccc12)C(=O)N[C@@H](CC(C)C)C(=O)N[C@@H](CCC(=O)O)C(=O)N[C@@H](CCCNC(=N)N)C(=O)NCC(=O)NCC(N)=O)C(C)C [g818] (H-HSQGTFTSDYSEYLDSK([Ahx-Palmitoyl])RAADFVAWLERGG-NH2; N-terminus assumed) |
| 103 | 0.00234 | 0.018 | CCCCCCCCCCCCCCCC(=O)NCCC(=O)NCCCC[C@H](NC(=O)[C@H](CO)NC(=O)[C@H](CC(=O)O)NC(=O)[C@H](CC(C)C)NC(=O)[C@H](Cc1ccc(O)cc1)NC(=O)[C@H](CCCCN)NC(=O)[C@H](CO)NC(=O)[C@H](Cc1ccc(O)cc1)NC(=O)[C@H](CC(=O)O)NC(=O)[C@H](CO)NC(=O)[C@@H](NC(=O)[C@H](Cc1ccccc1)NC(=O)[C@@H](NC(=O)CNC(=O)[C@H](CCC(N)=O)NC(=O)[C@H](CO)NC(=O)[C@@H](N)Cc1c[nH]cn1)[C@@H](C)O)[C@@H](C)O)C(=O)N[C@@H](CCCNC(=N)N)C(=O)N[C@@H](C)C(=O)N[C@@H](CCCNC(=N)N)C(=O)N[C@@H](CC(=O)O)C(=O)N[C@@H](Cc1ccccc1)C(=O)N[C@H](C(=O)N[C@@H](C)C(=O)N[C@@H](Cc1c[nH]c2ccccc12)C(=O)N[C@@H](CC(C)C)C(=O)N[C@@H](CCC(=O)O)C(=O)N[C@@H](C)C(=O)NCC(=O)NCC(N)=O)C(C)C [g819] (H-HSQGTFTSDYSKYLDSK([βAla-Palmitoyl])RARDFVAWLEAGG-NH2; N-terminus assumed) |
| 71.1 | 0.0117 | 0.0339 | CCCCCCCCCCCCCCCC(=O)N[C@@H](CCC(=O)NCCCC[C@H](NC(=O)[C@H](CCCNC(=N)N)NC(=O)[C@H](CO)NC(=O)[C@H](Cc1ccc(O)cc1)NC(=O)[C@H](CC(=O)O)NC(=O)[C@H](CO)NC(=O)[C@@H](NC(=O)[C@H](Cc1ccccc1)NC(=O)[C@@H](NC(=O)CNC(=O)[C@H](CCC(N)=O)NC(=O)[C@H](CO)NC(=O)[C@@H](N)Cc1c[nH]cn1)[C@@H](C)O)[C@@H](C)O)C(=O)N[C@@H](CC(C)C)C(=O)N[C@@H](CC(=O)O)C(=O)N[C@@H](CO)C(=O)N[C@@H](CCC(=O)O)C(=O)N[C@@H](CCCNC(=N)N)C(=O)N[C@@H](C)C(=O)N[C@@H](CCCNC(=N)N)C(=O)N[C@@H](CC(=O)O)C(=O)N[C@@H](Cc1ccccc1)C(=O)N[C@H](C(=O)N[C@@H](C)C(=O)N[C@@H](Cc1c[nH]c2ccccc12)C(=O)N[C@@H](CC(C)C)C(=O)N[C@H](C(=O)N[C@@H](C)C(=O)NCC(=O)NCC(N)=O)C(C)C)C(C)C)C(=O)O [g820] (H-HSQGTFTSDYSRK([γGlu-Palmitoyl])LDSERARDFVAWLVAGG-NH2; N-terminus assumed) |
